The source of these data is ChEMBL document CHEMBL1255447, “Efflux pumps, OprD porin, AmpC beta-lactamase, and multiresistance in Pseudomonas aeruginosa isolates from cystic fibrosis patients” (2010).

≈ marks a conversion by molar mass, not a printed value.

One assay deals with Pseudomonas aeruginosa. Kind of assay: Antimicrobial activity against Pseudomonas aeruginosa isolate 16008 from fibrosis patient by Etest.
Details: not given
In kind it is functional.
In turn, `NCC[C@H](O)C(=O)N[C@@H]1C[C@H](N)[C@@H](O[C@H]2O[C@H](CN)[C@@H](O)[C@H](O)[C@H]2O)[C@H](O)[C@H]1O[C@H]1O[C@H](CO)[C@@H](O)[C@H](N)[C@H]1O` [AMIKACIN] came in with an MIC of 32 µg/mL (≈ 54.6 µM).

The next assay concerns Pseudomonas aeruginosa. Kind of assay: Antimicrobial activity against Pseudomonas aeruginosa 1405-con D2 by Etest. In kind it is functional.
Details: not given
As to `NCC[C@H](O)C(=O)N[C@@H]1C[C@H](N)[C@@H](O[C@H]2O[C@H](CN)[C@@H](O)[C@H](O)[C@H]2O)[C@H](O)[C@H]1O[C@H]1O[C@H](CO)[C@@H](O)[C@H](N)[C@H]1O` [AMIKACIN], the MIC came out at 4 µg/mL (≈ 6.83 µM).

In the next assay the test system is Pseudomonas aeruginosa. Description: Antimicrobial activity against Pseudomonas aeruginosa R20 Etest.
Details: not given
In kind it is functional.
For `NCC[C@H](O)C(=O)N[C@@H]1C[C@H](N)[C@@H](O[C@H]2O[C@H](CN)[C@@H](O)[C@H](O)[C@H]2O)[C@H](O)[C@H]1O[C@H]1O[C@H](CO)[C@@H](O)[C@H](N)[C@H]1O` [AMIKACIN], the MIC was ≤ 0.5 µg/mL.

The next assay has as its system Pseudomonas aeruginosa. Description: Antimicrobial activity against Pseudomonas aeruginosa isolate 17145c from fibrosis patient by Etest. Format: functional.
Details: not given
Compound `NCC[C@H](O)C(=O)N[C@@H]1C[C@H](N)[C@@H](O[C@H]2O[C@H](CN)[C@@H](O)[C@H](O)[C@H]2O)[C@H](O)[C@H]1O[C@H]1O[C@H](CO)[C@@H](O)[C@H](N)[C@H]1O` [AMIKACIN] showed an MIC of 64 µg/mL (≈ 109 µM).

The subject of another assay is Pseudomonas aeruginosa. Kind of assay: Antimicrobial activity against Pseudomonas aeruginosa isolate 17112 from fibrosis patient by Etest. In kind it is functional.
Details: not given
`NCC[C@H](O)C(=O)N[C@@H]1C[C@H](N)[C@@H](O[C@H]2O[C@H](CN)[C@@H](O)[C@H](O)[C@H]2O)[C@H](O)[C@H]1O[C@H]1O[C@H](CO)[C@@H](O)[C@H](N)[C@H]1O` [AMIKACIN] returned an MIC of 1 µg/mL (≈ 1.71 µM).

The subject of another assay is Pseudomonas aeruginosa. Description: Antimicrobial activity against Pseudomonas aeruginosa isolate 12102 from fibrosis patient by Etest. In kind it is functional.
Details: not given
In the case of `NCC[C@H](O)C(=O)N[C@@H]1C[C@H](N)[C@@H](O[C@H]2O[C@H](CN)[C@@H](O)[C@H](O)[C@H]2O)[C@H](O)[C@H]1O[C@H]1O[C@H](CO)[C@@H](O)[C@H](N)[C@H]1O` [AMIKACIN], the MIC is 4 µg/mL (≈ 6.83 µM).

For the next assay, the system named is Pseudomonas aeruginosa. Kind of assay: Antimicrobial activity against Pseudomonas aeruginosa M1251 by Etest.
Details: not given
`NCC[C@H](O)C(=O)N[C@@H]1C[C@H](N)[C@@H](O[C@H]2O[C@H](CN)[C@@H](O)[C@H](O)[C@H]2O)[C@H](O)[C@H]1O[C@H]1O[C@H](CO)[C@@H](O)[C@H](N)[C@H]1O` [AMIKACIN] had an MIC of 1 µg/mL (≈ 1.71 µM).

A further assay deals with Pseudomonas aeruginosa. Description: Antimicrobial activity against Pseudomonas aeruginosa isolate 1247c from fibrosis patient by Etest. Format: functional.
Details: not given
Regarding `NCC[C@H](O)C(=O)N[C@@H]1C[C@H](N)[C@@H](O[C@H]2O[C@H](CN)[C@@H](O)[C@H](O)[C@H]2O)[C@H](O)[C@H]1O[C@H]1O[C@H](CO)[C@@H](O)[C@H](N)[C@H]1O` [AMIKACIN], the MIC was > 64 µg/mL.

Another assay relates to Pseudomonas aeruginosa. Kind of assay: Antimicrobial activity against Pseudomonas aeruginosa isolate 1712c from fibrosis patient by Etest. In kind it is functional.
Details: not given
In the case of `NCC[C@H](O)C(=O)N[C@@H]1C[C@H](N)[C@@H](O[C@H]2O[C@H](CN)[C@@H](O)[C@H](O)[C@H]2O)[C@H](O)[C@H]1O[C@H]1O[C@H](CO)[C@@H](O)[C@H](N)[C@H]1O` [AMIKACIN], the MIC was > 64 µg/mL.

The subject of another assay is Pseudomonas aeruginosa. Description: Antimicrobial activity against Pseudomonas aeruginosa isolate 1726 from fibrosis patient by Etest. In kind it is functional.
Details: not given
Compound `NCC[C@H](O)C(=O)N[C@@H]1C[C@H](N)[C@@H](O[C@H]2O[C@H](CN)[C@@H](O)[C@H](O)[C@H]2O)[C@H](O)[C@H]1O[C@H]1O[C@H](CO)[C@@H](O)[C@H](N)[C@H]1O` [AMIKACIN] yielded an MIC of 2 µg/mL (≈ 3.42 µM).

In another assay the test system is Pseudomonas aeruginosa. Kind of assay: Antimicrobial activity against Pseudomonas aeruginosa isolate 1352c from fibrosis patient by Etest. In kind it is functional.
Details: not given
For `NCC[C@H](O)C(=O)N[C@@H]1C[C@H](N)[C@@H](O[C@H]2O[C@H](CN)[C@@H](O)[C@H](O)[C@H]2O)[C@H](O)[C@H]1O[C@H]1O[C@H](CO)[C@@H](O)[C@H](N)[C@H]1O` [AMIKACIN], the MIC is > 64 µg/mL.

The subject of a further assay is Pseudomonas aeruginosa. Kind of assay: Antimicrobial activity against Pseudomonas aeruginosa isolate 3149 from fibrosis patient by Etest. Format: functional.
Details: not given
As for `NCC[C@H](O)C(=O)N[C@@H]1C[C@H](N)[C@@H](O[C@H]2O[C@H](CN)[C@@H](O)[C@H](O)[C@H]2O)[C@H](O)[C@H]1O[C@H]1O[C@H](CO)[C@@H](O)[C@H](N)[C@H]1O` [AMIKACIN], the MIC is > 64 µg/mL.

Another assay has as its system Pseudomonas aeruginosa. Description: Antimicrobial activity against Pseudomonas aeruginosa isolate 1681c from fibrosis patient by Etest. Format: functional.
Details: not given
Compound `NCC[C@H](O)C(=O)N[C@@H]1C[C@H](N)[C@@H](O[C@H]2O[C@H](CN)[C@@H](O)[C@H](O)[C@H]2O)[C@H](O)[C@H]1O[C@H]1O[C@H](CO)[C@@H](O)[C@H](N)[C@H]1O` [AMIKACIN] returned an MIC of 64 µg/mL (≈ 109 µM).

In the next assay the test system is Pseudomonas aeruginosa. Description: microbe, parasite or virus in culture. The note with it: 2779-con.
Description: Antimicrobial activity against Pseudomonas aeruginosa 2779-con by Etest
Regarding `NCC[C@H](O)C(=O)N[C@@H]1C[C@H](N)[C@@H](O[C@H]2O[C@H](CN)[C@@H](O)[C@H](O)[C@H]2O)[C@H](O)[C@H]1O[C@H]1O[C@H](CO)[C@@H](O)[C@H](N)[C@H]1O` [AMIKACIN], the MIC was 1 µg/mL (≈ 1.71 µM).

The subject of a further assay is Pseudomonas aeruginosa. Description: Antimicrobial activity against Pseudomonas aeruginosa Z799/61 by Etest.
Details: not given
In kind it is functional.
Consider `NCC[C@H](O)C(=O)N[C@@H]1C[C@H](N)[C@@H](O[C@H]2O[C@H](CN)[C@@H](O)[C@H](O)[C@H]2O)[C@H](O)[C@H]1O[C@H]1O[C@H](CO)[C@@H](O)[C@H](N)[C@H]1O` [AMIKACIN], for which the MIC was found to be 1 µg/mL (≈ 1.71 µM).

A further assay has as its system Pseudomonas aeruginosa. Description: Antimicrobial activity against Pseudomonas aeruginosa isolate 15110c from fibrosis patient by Etest.
Details: not given
Format: functional.
On to `NCC[C@H](O)C(=O)N[C@@H]1C[C@H](N)[C@@H](O[C@H]2O[C@H](CN)[C@@H](O)[C@H](O)[C@H]2O)[C@H](O)[C@H]1O[C@H]1O[C@H](CO)[C@@H](O)[C@H](N)[C@H]1O` [AMIKACIN], for which the MIC was > 64 µg/mL.
